Reference: patent US10604523B2, “1-aryl-4-methyl-[1,2,4]triazolo[4,3-a]quinoxaline derivatives” (Janssen Pharmaceutica NV, priority 2011, dated 2020)

Experiments:
[1] = target: T1, Human recombinant PDE2A (hPDE2A) (Homo sapiens, UniProt O00408); assay: In vitro assay PDE2A (SPA, 3H-cGMP); format: biochemical; details: read-out: pIC50 PDE2 (converted)
T1 construct: made in house; host or cells: Sf9 insect cells (baculovirus)
Protocol: Tested compounds were dissolved and diluted in 100% DMSO to a concentration 100 fold of the final concentration in the assay. Compound dilutions (0.4 μl) were added in 384 well plates to 20 μl of incubation buffer (50 mM Tris pH 7.8, 8.3 mM MgCl2, 1.7 mM EGTA). 10 μl of hPDE2A enzyme in incubation buffer was added and the reaction was started by addition of 10 μl substrate to a final concentration of 10 μM cGMP and 0.01 μCi ^3H-cGMP. The reaction was incubated for 45 minutes at room temperature. […] After sedimentation of the beads during 30 minutes the radioactivity was measured in a Perkin Elmer Topcount scintillation counter and results were expressed as cpm. For blanc values the enzyme was omitted from the reaction and replaced by incubation buffer. Control values were obtained by addition of a final concentration of 1% DMSO instead of compound.

[2] = target: T2, Rat recombinant PDE10A (rPDE10A2) (Rattus norvegicus, UniProt Q9QYJ6); assay: In vitro assay PDE10A (SPA, 3H-cAMP); format: biochemical; details: read-out: PIC50 PDE10 (converted)
T2 construct: made in house; host or cells: Sf9 insect cells (baculovirus)
T2 sequence (Q9QYJ6 1-794): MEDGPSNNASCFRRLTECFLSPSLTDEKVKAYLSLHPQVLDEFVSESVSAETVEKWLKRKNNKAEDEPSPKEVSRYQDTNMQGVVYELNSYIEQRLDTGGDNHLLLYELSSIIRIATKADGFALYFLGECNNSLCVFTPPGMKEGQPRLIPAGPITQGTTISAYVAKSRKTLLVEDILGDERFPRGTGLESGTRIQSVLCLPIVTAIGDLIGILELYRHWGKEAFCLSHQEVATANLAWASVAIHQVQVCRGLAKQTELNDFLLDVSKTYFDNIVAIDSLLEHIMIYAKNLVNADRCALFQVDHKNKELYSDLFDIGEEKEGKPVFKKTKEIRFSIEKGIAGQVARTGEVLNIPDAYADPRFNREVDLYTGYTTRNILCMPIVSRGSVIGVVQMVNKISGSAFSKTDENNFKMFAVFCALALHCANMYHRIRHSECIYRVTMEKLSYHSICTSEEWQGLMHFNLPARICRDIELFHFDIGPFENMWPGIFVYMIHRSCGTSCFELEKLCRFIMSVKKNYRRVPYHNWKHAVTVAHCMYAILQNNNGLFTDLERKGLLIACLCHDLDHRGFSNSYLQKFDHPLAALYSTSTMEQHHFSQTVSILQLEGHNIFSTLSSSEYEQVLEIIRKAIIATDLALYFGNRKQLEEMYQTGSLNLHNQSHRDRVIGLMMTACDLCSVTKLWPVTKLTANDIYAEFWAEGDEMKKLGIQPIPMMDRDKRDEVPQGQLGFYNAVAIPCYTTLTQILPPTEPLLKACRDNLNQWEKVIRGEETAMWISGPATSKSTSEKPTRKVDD

T1 sequence (O00408 whole entry): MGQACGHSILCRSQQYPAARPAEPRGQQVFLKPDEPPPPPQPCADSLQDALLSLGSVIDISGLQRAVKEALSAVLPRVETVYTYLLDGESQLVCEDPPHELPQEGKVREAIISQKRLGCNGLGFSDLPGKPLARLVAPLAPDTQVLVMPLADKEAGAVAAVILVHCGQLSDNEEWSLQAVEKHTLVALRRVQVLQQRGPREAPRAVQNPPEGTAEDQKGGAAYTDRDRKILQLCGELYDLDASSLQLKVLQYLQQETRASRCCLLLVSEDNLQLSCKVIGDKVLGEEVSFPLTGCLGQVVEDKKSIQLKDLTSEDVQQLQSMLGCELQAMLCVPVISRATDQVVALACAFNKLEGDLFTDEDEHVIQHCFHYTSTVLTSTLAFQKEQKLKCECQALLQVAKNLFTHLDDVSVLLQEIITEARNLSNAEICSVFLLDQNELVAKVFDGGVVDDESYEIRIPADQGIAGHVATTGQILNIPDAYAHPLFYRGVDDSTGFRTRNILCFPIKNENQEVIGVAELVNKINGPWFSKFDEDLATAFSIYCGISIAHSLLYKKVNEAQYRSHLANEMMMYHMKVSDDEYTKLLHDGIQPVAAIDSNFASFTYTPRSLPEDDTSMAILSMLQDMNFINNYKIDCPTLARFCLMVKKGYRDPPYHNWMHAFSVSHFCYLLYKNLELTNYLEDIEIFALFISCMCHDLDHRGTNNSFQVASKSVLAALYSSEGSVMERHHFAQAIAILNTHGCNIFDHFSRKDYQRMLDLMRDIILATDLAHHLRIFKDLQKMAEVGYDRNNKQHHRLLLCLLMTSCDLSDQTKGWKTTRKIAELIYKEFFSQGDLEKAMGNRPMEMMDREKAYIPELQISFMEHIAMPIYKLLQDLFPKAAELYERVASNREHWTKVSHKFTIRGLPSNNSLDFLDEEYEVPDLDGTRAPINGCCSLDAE

Cc1nc2ccc(C(=O)OCCCc3ccccc3)cc2n2c(-c3ccccc3)nnc12 [Compound B-158] was tested, and the IC50 [1] was 0.0603 µM and the IC50 [2] was 0.603 µM.

With Cc1nc2ccc(N3CCN(C)CC3)cc2n2c(-c3cc(OC(C)C)ccc3Cl)nnc12 [Compound B-115] the IC50 [1] was 0.0245 µM and the IC50 [2] was 1.12 µM.

For Cc1nc2ccc(Br)cc2n2c(-c3cncc(OCC4CC4)c3)nnc12 [Compound B-125], the IC50 [1] was 0.0275 µM and the IC50 [2] was 3.09 µM.

Cc1nc2ccc(CNc3cccnc3)cc2n2c(-c3cc(OC(C)C)ccc3Cl)nnc12 [Compound B-133] gave an IC50 [1] of 0.0302 µM and an IC50 [2] of 1.23 µM.

Cc1ccncc1-c1nnc2c(C)nc3ccc(C(=O)C4CC4)cc3n12 [Compound B-24, Cyclopropyl [4-methyl-1-(4-methylpyridin-3-yl) [1,2,4]triazolo[4,3-a]quinoxalin-8-yl]methanone] showed an IC50 [1] of 0.0398 µM and an IC50 [2] of 0.525 µM.

CCCCOc1cncc(-c2nnc3c(C)nc4ccc(CNC5CCC5)cc4n23)c1 [Compound B-155] showed an IC50 [1] of 0.0603 µM and an IC50 [2] of 9.12 µM.

For COc1cncc(-c2nnc3c(C)nc4ccc(C(F)(F)F)cc4n23)c1 [Compound B-163], the IC50 [1] was 0.0692 µM and the IC50 [2] was 1.15 µM.

With Cc1nc2ccc(Br)cc2n2c(-c3cncc(Cl)c3)nnc12 [Compound B-171] the IC50 [1] was 0.117 µM and the IC50 [2] was 0.741 µM.

Work on COc1ccc2nc(C)c3nnc(-c4cnccc4C)n3c2c1 [Compound B-173] yielded an IC50 [1] of 0.135 µM and an IC50 [2] of 0.977 µM.

Cc1nc2ccc(CO)cc2n2c(-c3ccccc3)nnc12 [Compound B-29, (4-Methyl-1-phenyl[1,2,4]triazolo[4,3-a]quinoxalin-8-yl)methanol] gave an IC50 [1] of 0.0447 µM and an IC50 [2] of 0.38 µM.

With Cc1nc2ccc(CN3CCCC3)cc2n2c(-c3cncc(OCC4CC4)c3)nnc12 [Compound B-208] the IC50 [1] was 0.275 µM and the IC50 [2] was greater than 10 µM.

COc1cncc(-c2nnc3c(C)nc4ccc(Br)cc4n23)c1 [Compound B-124] was tested, and the IC50 [1] was 0.0275 µM and the IC50 [2] was 0.355 µM.

With Cc1nc2ccc(CN3CCOCC3)cc2n2c(-c3cncc(OCCF)c3)nnc12 [Compound B-195] the IC50 [1] was 0.0427 µM and the IC50 [2] was 3.55 µM.

CCCOc1ccc(Cl)c(-c2nnc3c(C)nc4ccc(N5CCN(C)CC5)cc4n23)c1 [Compound B-117] gave an IC50 [1] of 0.0251 µM and an IC50 [2] of 0.912 µM.

Cc1nc2ccc(CNC3CCC3)cc2n2c(-c3cncc(OCC4CC4)c3)nnc12 [Compound B-207] showed an IC50 [1] of 0.24 µM and an IC50 [2] greater than 10 µM.

Compound Cc1nc2ccc(CN3CCC(N(C)C)CC3)cc2n2c(-c3ccccc3Cl)nnc12 [Compound B-157] has an IC50 [1] of 0.0575 µM and an IC50 [2] of 0.282 µM.

In the case of COCCC1CN(Cc2ccc3nc(C)c4nnc(-c5ccccc5Cl)n4c3c2)CCO1 (stereo not drawn) [Compound B-106], the IC50 [1] was 0.0195 µM and the IC50 [2] was 0.0891 µM.

CCOCc1cncc(-c2nnc3c(C)nc4ccc(CNC5CCC5)cc4n23)c1 [Compound B-213] showed an IC50 [1] of 0.372 µM and an IC50 [2] greater than 10 µM.

Cc1nc2ccc(CN3CCN(C)CC3)cc2n2c(-c3cc(OC(C)C)ccc3Cl)nnc12 [Compound B-170] showed an IC50 [1] of 0.102 µM and an IC50 [2] of 3.63 µM.

Work on COCCCc1cncc(-c2nnc3c(C)nc4ccc(CN5CCOCC5)cc4n23)c1 [Compound B-204] yielded an IC50 [1] of 0.132 µM and an IC50 [2] of 8.13 µM.

In the case of COc1ccc(Cl)c(-c2nnc3c(C)nc4ccc(Br)cc4n23)c1 [Compound B-69], the IC50 [1] was 0.00617 µM and the IC50 [2] was 0.0776 µM.

Cc1nc2ccc(C(=O)OCc3ccccc3)cc2n2c(-c3ccccc3)nnc12 [Compound B-8, Benzyl 4-methyl-1-phenyl[1,2,4]triazolo[4,3-a]quinoxaline-8-carboxylate] showed an IC50 [1] of 0.0204 µM and an IC50 [2] of 0.38 µM.

In the case of CCOCc1cncc(-c2nnc3c(C)nc4ccc(CN5CCOCC5)cc4n23)c1 [Compound B-194], the IC50 [1] was 0.0295 µM and the IC50 [2] was 7.76 µM.

In the case of COCCc1cncc(-c2nnc3c(C)nc4ccc(CN5CCOCC5)cc4n23)c1 [Compound B-198], the IC50 [1] was 0.0891 µM and the IC50 [2] was 5.89 µM.
